{"source": "patent US20240082224A1", "about": "“METHODS OF TREATING HEMATOLOGICAL MALIGNANCY USING NANOPARTICLE MTOR INHIBITOR COMBINATION THERAPY” (Abraxis BioScience, LLC, priority 2015, published 2024)", "origin": "cited, not measured here", "key": {"[1]": {"settings": "in vivo"}, "ABCB1": {"molecular_target": "ABCB1 (Homo sapiens, UniProt P08183)", "sequence (P08183 whole entry, species assumed)": "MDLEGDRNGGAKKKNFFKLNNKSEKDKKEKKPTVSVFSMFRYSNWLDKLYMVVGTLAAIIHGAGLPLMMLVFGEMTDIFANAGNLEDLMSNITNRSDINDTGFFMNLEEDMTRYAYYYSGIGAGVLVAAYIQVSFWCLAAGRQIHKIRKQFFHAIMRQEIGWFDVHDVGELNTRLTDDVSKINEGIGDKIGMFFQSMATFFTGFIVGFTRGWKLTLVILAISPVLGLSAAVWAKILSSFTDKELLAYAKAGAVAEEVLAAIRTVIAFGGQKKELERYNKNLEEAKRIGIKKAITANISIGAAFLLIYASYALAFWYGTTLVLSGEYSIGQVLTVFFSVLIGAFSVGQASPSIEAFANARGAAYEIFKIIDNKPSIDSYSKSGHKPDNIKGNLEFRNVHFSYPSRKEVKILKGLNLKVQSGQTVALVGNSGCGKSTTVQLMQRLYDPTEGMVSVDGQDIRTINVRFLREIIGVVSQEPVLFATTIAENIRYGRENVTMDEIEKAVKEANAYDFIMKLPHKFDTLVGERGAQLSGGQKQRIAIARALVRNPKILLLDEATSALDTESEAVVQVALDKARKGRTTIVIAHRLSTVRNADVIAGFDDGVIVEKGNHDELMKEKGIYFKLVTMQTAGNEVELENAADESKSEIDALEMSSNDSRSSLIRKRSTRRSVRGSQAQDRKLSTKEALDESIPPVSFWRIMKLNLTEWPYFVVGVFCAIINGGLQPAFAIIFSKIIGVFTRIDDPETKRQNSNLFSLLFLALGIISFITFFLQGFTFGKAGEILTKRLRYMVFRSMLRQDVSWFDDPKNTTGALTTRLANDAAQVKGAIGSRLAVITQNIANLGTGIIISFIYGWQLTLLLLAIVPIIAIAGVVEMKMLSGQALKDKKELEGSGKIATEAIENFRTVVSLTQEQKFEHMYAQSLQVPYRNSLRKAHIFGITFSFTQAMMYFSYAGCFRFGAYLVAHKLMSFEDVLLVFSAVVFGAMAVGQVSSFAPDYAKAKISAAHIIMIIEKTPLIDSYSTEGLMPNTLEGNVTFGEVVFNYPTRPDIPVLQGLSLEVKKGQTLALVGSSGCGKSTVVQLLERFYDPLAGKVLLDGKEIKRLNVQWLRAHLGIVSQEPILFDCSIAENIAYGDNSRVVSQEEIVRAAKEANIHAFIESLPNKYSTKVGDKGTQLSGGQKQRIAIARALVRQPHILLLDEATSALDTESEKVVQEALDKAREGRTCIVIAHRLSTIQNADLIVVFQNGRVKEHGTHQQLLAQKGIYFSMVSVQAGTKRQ"}, "ABCG2": {"molecular_target": "T1, ABCG2 (Homo sapiens, UniProt Q9UNQ0)", "T1 sequence (Q9UNQ0 1-655)": "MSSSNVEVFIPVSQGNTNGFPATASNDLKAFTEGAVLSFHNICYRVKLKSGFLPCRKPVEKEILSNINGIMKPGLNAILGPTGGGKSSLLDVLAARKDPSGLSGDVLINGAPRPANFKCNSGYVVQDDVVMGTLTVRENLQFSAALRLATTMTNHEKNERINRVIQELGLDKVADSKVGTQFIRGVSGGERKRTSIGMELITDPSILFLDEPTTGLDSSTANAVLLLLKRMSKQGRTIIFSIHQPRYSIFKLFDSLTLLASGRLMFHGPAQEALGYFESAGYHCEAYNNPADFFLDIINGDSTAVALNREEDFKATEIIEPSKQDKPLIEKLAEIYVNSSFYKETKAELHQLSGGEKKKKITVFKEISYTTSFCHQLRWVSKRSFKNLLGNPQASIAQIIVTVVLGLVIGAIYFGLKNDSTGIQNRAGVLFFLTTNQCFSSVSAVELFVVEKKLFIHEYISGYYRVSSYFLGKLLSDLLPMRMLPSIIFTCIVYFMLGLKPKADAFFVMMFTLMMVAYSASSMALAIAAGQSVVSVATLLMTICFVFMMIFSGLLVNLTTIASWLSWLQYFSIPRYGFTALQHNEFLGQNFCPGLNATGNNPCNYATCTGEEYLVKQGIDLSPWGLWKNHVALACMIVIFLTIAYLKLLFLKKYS"}}, "data": [{"smiles": "COc1ccc(COc2cc3oc(=O)c4cc(C(C)O)ccc4c3cc2OC)cc1", "note": "(centres unmarked) [Palomid 529]", "values": [{"measurement": "brain penetration", "setting": "[1]", "value": "good brain penetration"}, {"measurement": "affinity for ABCB1", "setting": "ABCB1", "value": "lacks affinity"}, {"measurement": "affinity for ABCG2", "setting": "ABCG2", "value": "lacks affinity"}]}, {"smiles": "Cc1ccc(NC(=O)c2ccc(CN3CCN(C)CC3)cc2)cc1Nc1nccc(-c2cccnc2)n1", "note": "[imatinib]", "values": [{"measurement": "CML patients who respond", "setting": "CML patients; imatinib", "value": 80, "unit": "%"}, {"measurement": "patients progressing to advanced disease", "setting": "CML patients; within 5 years", "value": "under 3%"}]}]}
